The values below come from ChEMBL document CHEMBL1201862, “PubChem BioAssay data set” (2004).

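These data come from cells grown in 96-well plates and exposed to compound for 48 hours at five concentrations. Here, GI50 denotes the concentration required for 50% inhibition of growth.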 Calls of active or inactive are those of the source. Cut-off read from the data, not from the text of the source: active = GI50 up to about 1.1 µM and inactive = higher. Peptide text beside a SMILES is read from it. * marks the point of attachment. Boc = CC(C)(C)OC(=O)*; OBn = c1ccc(CO*)cc1 Bounds are passed on as bounds.

Some test systems named below: SN12C; HCT-116; OVCAR-3; MOLT-4; OVCAR-4; M14; NCI/ADR-RES; SF-268; EKVX; UACC-62; SNB-75; HOP-92; NCI-H522; SF-539; CAKI-1; A549; MDA-N; Malme-3M; CCRF-CEM.
What all share (experiment): inhibition of tumour cell growth, NCI panel, 48 h

For the molecule `N#CC1=C(N)OC2=C(CCCc3ccc([N+](=O)[O-])cc32)C1c1ccccc1` (stereo unspecified), the GI50 with SN12C was 6 µM (inactive); with HCT-116 it was 4.23 µM (inactive); in the experiment with OVCAR-3 it was 2.21 µM (inactive); with MOLT-4, 3.69 µM (inactive); in the experiment with OVCAR-4, 6.41 µM (inactive); in the experiment with M14, 3.13 µM (inactive). Further, the GI50 is 2.38 µM (inactive) in the experiment with NCI/ADR-RES; 5.41 µM (inactive) in the experiment on SF-268; 6.19 µM (inactive) with EKVX; 1.98 µM (inactive) in the experiment on UACC-62; 82.8 µM (inactive) in the experiment on SNB-75; 6.46 µM (inactive) with HOP-92. In addition, the GI50 in the experiment on NCI-H522 was 2.14 µM (inactive); in the experiment on SF-539, 3.17 µM (inactive); in the experiment on CAKI-1, 9.25 µM (inactive); in the experiment with A549, 6.21 µM (inactive); with MDA-N, 2.09 µM (inactive); in the experiment with Malme-3M, 7.45 µM (inactive).

Consider `Cc1ccc(S(=O)(=O)NC(=O)C2C(=O)CC3(CCCCC3)CC2=O)cc1`, for which the GI50 is 30.8 µM (inactive) with SN12C; 25.9 µM (inactive) in the experiment with HCT-116; 29 µM (inactive) in the experiment with OVCAR-3; 42.4 µM (inactive) in the experiment on MOLT-4; 32.4 µM (inactive) in the experiment on OVCAR-4; 34.5 µM (inactive) in the experiment on M14. The GI50 in the experiment with NCI/ADR-RES is 19.7 µM (inactive); in the experiment with SF-268, 34.8 µM (inactive); in the experiment with EKVX it was 25.4 µM (inactive); in the experiment with UACC-62, 31.3 µM (inactive); with SNB-75, 51.4 µM (inactive); in the experiment with HOP-92, 14.8 µM (inactive). Also, the GI50 in the experiment on NCI-H522 is 23.8 µM (inactive); in the experiment with SF-539 it was 30.7 µM (inactive); in the experiment on CAKI-1 it was 26.4 µM (inactive); with CCRF-CEM, 27.3 µM (inactive); in the experiment with A549, 33.3 µM (inactive); with MDA-N, 29.3 µM (inactive).

On to `CC1=CC(=O)/C(=C/NC(=S)Nc2ccccc2)C(=O)O1`, for which the GI50 with SN12C, in the experiment with HCT-116, in the experiment with OVCAR-3, with MOLT-4, with OVCAR-4 and in the experiment on M14 was > 100 µM (inactive) throughout. The GI50 in the experiment with NCI/ADR-RES, with SF-268, in the experiment with EKVX, with UACC-62, with SNB-75 and in the experiment on HOP-92 was > 100 µM (inactive) in each case. Also, the GI50 with NCI-H522 is 53.3 µM (inactive); in the experiment on SF-539, > 100 µM (inactive); with CAKI-1, > 100 µM (inactive); with CCRF-CEM, > 100 µM (inactive); in the experiment with A549, > 100 µM (inactive); in the experiment on MDA-N, > 100 µM (inactive).

On to `CC(=O)OC[C@@]12C[C@H]3C(=O)C(C)(C)C[C@H]3[C@]1(C)[C@@H](OC(C)=O)[C@]1(O)[C@H]([C@@H](OC(=O)c3ccccc3)[C@@H](C)[C@H]1OC(C)=O)[C@H]2OC(C)=O`, for which the GI50 with SN12C is > 20 µM (inactive); in the experiment on HCT-116 it was > 20 µM (inactive); with OVCAR-3, > 20 µM (inactive); with MOLT-4, 9.02 µM (inactive); in the experiment on OVCAR-4 it was > 20 µM (inactive); in the experiment with M14, > 20 µM (inactive). Besides, the GI50 in the experiment with NCI/ADR-RES, in the experiment on SF-268, with EKVX, in the experiment on UACC-62, in the experiment with SNB-75 and with HOP-92 was > 20 µM (inactive) each time. Also, the GI50 with NCI-H522 was > 20 µM (inactive); in the experiment on SF-539 it was 16.5 µM (inactive); in the experiment on CAKI-1, > 20 µM (inactive); in the experiment on CCRF-CEM, 6.21 µM (inactive); in the experiment with MDA-N, 12.9 µM (inactive).

As to `CC(NC(=O)Cc1ccccc1)NC(=O)C(C)C(=O)Nc1ccccc1` (stereo unspecified), the GI50 is 36.1 µM (inactive) in the experiment on SN12C; > 100 µM (inactive) in the experiment on HCT-116; > 100 µM (inactive) with MOLT-4; > 100 µM (inactive) in the experiment on OVCAR-4; > 100 µM (inactive) in the experiment on M14; > 100 µM (inactive) in the experiment with NCI/ADR-RES. Also, the GI50 with SF-268 was 36.6 µM (inactive); in the experiment with EKVX, > 100 µM (inactive); with UACC-62, > 100 µM (inactive); with SNB-75, 24 µM (inactive); with HOP-92, 44.2 µM (inactive); in the experiment on NCI-H522, 23.1 µM (inactive). Besides, the GI50 with SF-539 is > 100 µM (inactive); with CAKI-1, 66.5 µM (inactive); with A549, > 100 µM (inactive); in the experiment on MDA-N, > 100 µM (inactive); with Malme-3M, 16.1 µM (inactive).

On to `CC(C)CC(NC(=O)OC(C)(C)C)C(=O)NC(CC(=O)OCc1ccccc1)C(N)=O` (stereo not drawn) (Boc-Leu-Asp(OBn)-NH2; configuration not given here), for which the GI50 with SN12C, in the experiment with HCT-116, with OVCAR-3, in the experiment with OVCAR-4, with M14 and in the experiment with NCI/ADR-RES was > 100 µM (inactive) each time. The GI50 with SF-268 was > 100 µM (inactive); in the experiment with EKVX it was > 100 µM (inactive); with UACC-62, > 100 µM (inactive); in the experiment on SNB-75, 17.3 µM (inactive); with HOP-92, > 100 µM (inactive); in the experiment on NCI-H522, > 100 µM (inactive). The GI50 in the experiment with SF-539, with CAKI-1, in the experiment on A549, in the experiment on MDA-N and in the experiment with Malme-3M was > 100 µM (inactive) each time.

As to `O=C1c2cc([N+](=O)[O-])ccc2-c2cccc(F)c21`, the GI50 was > 100 µM (inactive) in the experiment with SN12C; 67.6 µM (inactive) in the experiment with HCT-116; > 100 µM (inactive) in the experiment with OVCAR-3; 42.3 µM (inactive) with MOLT-4; > 100 µM (inactive) in the experiment on OVCAR-4; > 100 µM (inactive) with M14. The GI50 was > 100 µM (inactive) in the experiment on NCI/ADR-RES; 44.3 µM (inactive) with SF-268; 18.9 µM (inactive) in the experiment with EKVX; 56.1 µM (inactive) in the experiment with UACC-62; > 100 µM (inactive) with SNB-75; > 100 µM (inactive) in the experiment with HOP-92. Also, the GI50 is 44.5 µM (inactive) in the experiment on NCI-H522; 40.2 µM (inactive) in the experiment with SF-539; > 100 µM (inactive) in the experiment on CAKI-1; 23.7 µM (inactive) with CCRF-CEM; > 100 µM (inactive) in the experiment with A549; 72.3 µM (inactive) in the experiment with MDA-N.

As to `CC(=O)O[C@H]1C(=O)[C@@]2(C)[C@H]([C@H](OC(=O)c3cccc([N+](=O)[O-])c3)[C@]3(O)C[C@H](OC(=O)[C@H](O)[C@@H](NC(=O)c4ccccc4)c4ccccc4)C(C)=C1C3(C)C)[C@]1(OC(C)=O)CO[C@@H]1C[C@@H]2O`, the GI50 was 0.00695 µM (active) in the experiment on SN12C; 0.00533 µM (active) with HCT-116; < 0.0025 µM (active) with OVCAR-3; 0.00509 µM (active) in the experiment on MOLT-4; 3.58 µM (inactive) with OVCAR-4; 0.00619 µM (active) in the experiment on M14. For the same molecule, the GI50 is 5.52 µM (inactive) in the experiment with NCI/ADR-RES; 0.021 µM (active) in the experiment on SF-268; 2.78 µM (inactive) with EKVX; 0.0153 µM (active) in the experiment on UACC-62; 0.00759 µM (active) in the experiment on SNB-75; 0.022 µM (active) in the experiment with HOP-92. Besides, the GI50 in the experiment on NCI-H522 was 0.00362 µM (active); in the experiment on SF-539 it was < 0.0025 µM (active); in the experiment with CAKI-1, 0.241 µM (active); with CCRF-CEM it was 0.00479 µM (active); in the experiment with A549, 0.014 µM (active); in the experiment on MDA-N, 0.00285 µM (active).
